Activity calls are given as the source filed them. The calls are words filed in the database; no cut-off is given here.

Experiment [1] addresses LC3/Epithelial discoidin domain-containing receptor 1 (Homo sapiens, UniProt Q08345+Q9BXW4+Q9GZQ8+Q9H492). In words: Autophagosome tethering activity at DDR1 in human NCI-H23 cells assessed as protein degradation at 0.3 uM measured after 24 hrs by immunoblotting analysis relative to control. Type of experiment: cell-based. In general terms: Immunoblotting shows a protein as a band on a membrane.

Experiment [2] relates to NCI-H23. In words: Inhibition of cell migration in human NCI-H23 cells at 1 uM incubated for 24 hrs by transwell assay. Type of experiment: functional, cell-based.
Experiment [3] has as its system NCI-H23. In words: Inhibition of cell invasion in human NCI-H23 cells at 1 uM incubated for 24 hrs by transwell assay. Type of experiment: functional, cell-based.
In experiment [4] the test system is NCI-H23. In words: Inhibition of tumorigenicity in human NCI-H23 cells at 1 uM incubated for 10 days by colony formation assay. Type of experiment: functional, cell-based. Particulars: time 10.0 day.

For `CCc1ccc(C(=O)Nc2cc(CN3CCN(CCCCCCCC(=O)NCCCN(C(=O)c4ccc(C)cc4)[C@@H](c4nc5cc(Cl)ccc5c(=O)n4Cc4ccccc4)C(C)C)CC3)cc(C(F)(F)F)c2)cc1C#Cc1cnc2ccnn2c1`, the Activity in experiment [1] was 6%.
Still for that read-out and setting: to `CCc1ccc(C(=O)Nc2cc(CN3CCN(CCOCCOCCOCC(=O)NCCCN(C(=O)c4ccc(C)cc4)[C@@H](c4nc5cc(Cl)ccc5c(=O)n4Cc4ccccc4)C(C)C)CC3)cc(C(F)(F)F)c2)cc1C#Cc1cnc2ccnn2c1` belongs 0%; to `CCc1ccc(C(=O)Nc2cc(CN3CCN(C(=O)COCCNC(=O)COc4c(Br)cc(/C=C5\C(=O)Nc6ccc(I)cc65)cc4Br)CC3)cc(C(F)(F)F)c2)cc1C#Cc1cnc2ccnn2c1`, 0%; to `CCc1ccc(C(=O)Nc2cc(CN3CCN(CCCCCC(=O)NCCCN(C(=O)c4ccc(C)cc4)[C@@H](c4nc5cc(Cl)ccc5c(=O)n4Cc4ccccc4)C(C)C)CC3)cc(C(F)(F)F)c2)cc1C#Cc1cnc2ccnn2c1`, 13%.
Turning to `CC#Cc1cc(C(=O)Nc2cc(CN3CCN(CCOCC(=O)NCCCN(C(=O)c4ccc(C)cc4)[C@@H](c4nc5cc(Cl)ccc5c(=O)n4Cc4ccccc4)C(C)C)CC3)cc(C(F)(F)F)c2)ccc1CC`, the inhibition result in the experiment on NCI-H23 [2], in the experiment on NCI-H23 [3] and with NCI-H23 [4] was “inactive” in each case.
For the molecule `CCc1ccc(C(=O)Nc2cc(CN3CCN(C)CC3)cc(C(F)(F)F)c2)cc1C#Cc1cnc2ccnn2c1`, the inhibition entry in the experiment on NCI-H23 [2], in the experiment with NCI-H23 [3] and in the experiment with NCI-H23 [4] was “inactive” each time.
On to `CCc1ccc(C(=O)Nc2cc(CN3CCN(C(=O)CCCCCNC(=O)COc4c(Br)cc(/C=C5\C(=O)Nc6ccc(I)cc65)cc4Br)CC3)cc(C(F)(F)F)c2)cc1C#Cc1cnc2ccnn2c1`, for which, in experiment [1], the Activity was 12%.
Take `CCc1ccc(C(=O)Nc2cc(CN3CCN(C(=O)COCCOCCOCCNC(=O)COc4c(Br)cc(/C=C5\C(=O)Nc6ccc(I)cc65)cc4Br)CC3)cc(C(F)(F)F)c2)cc1C#Cc1cnc2ccnn2c1`: the Activity in experiment [1] was found to be 0%.
The same measure, in the same setting: to `CCc1ccc(C(=O)Nc2cc(CN3CCN(C(=O)CNC(=O)COc4c(Br)cc(/C=C5\C(=O)Nc6ccc(I)cc65)cc4Br)CC3)cc(C(F)(F)F)c2)cc1C#Cc1cnc2ccnn2c1` belongs 16%.
Still for that read-out and setting: to `CCc1ccc(C(=O)Nc2cc(CN3CCN(CCCC(=O)NCCCN(C(=O)c4ccc(C)cc4)[C@@H](c4nc5cc(Cl)ccc5c(=O)n4Cc4ccccc4)C(C)C)CC3)cc(C(F)(F)F)c2)cc1C#Cc1cnc2ccnn2c1` belongs 6%; to `CCc1ccc(C(=O)Nc2cc(CN3CCN(CCCCCCCCCC(=O)NCCCN(C(=O)c4ccc(C)cc4)[C@@H](c4nc5cc(Cl)ccc5c(=O)n4Cc4ccccc4)C(C)C)CC3)cc(C(F)(F)F)c2)cc1C#Cc1cnc2ccnn2c1`, 0%.
For `CCc1ccc(C(=O)Nc2cc(CN3CCN(C(=O)COc4c(Br)cc(/C=C5\C(=O)Nc6ccc(I)cc65)cc4Br)CC3)cc(C(F)(F)F)c2)cc1C#Cc1cnc2ccnn2c1`, in experiment [1], the Activity worked out at 4%.
Same read-out and setting: to `CCc1ccc(C(=O)Nc2cc(CN3CCN(CC(=O)NCCCN(C(=O)c4ccc(C)cc4)[C@@H](c4nc5cc(Cl)ccc5c(=O)n4Cc4ccccc4)C(C)C)CC3)cc(C(F)(F)F)c2)cc1C#Cc1cnc2ccnn2c1` belongs 4%; to `CCc1ccc(C(=O)Nc2cc(CN3CCN(C(=O)CCCNC(=O)COc4c(Br)cc(/C=C5\C(=O)Nc6ccc(I)cc65)cc4Br)CC3)cc(C(F)(F)F)c2)cc1C#Cc1cnc2ccnn2c1`, 17%.
On the same count and under the same terms, for `CCc1ccc(C(=O)Nc2cc(CN3CCN(C(=O)CCCCCCCNC(=O)COc4c(Br)cc(/C=C5\C(=O)Nc6ccc(I)cc65)cc4Br)CC3)cc(C(F)(F)F)c2)cc1C#Cc1cnc2ccnn2c1` the value was 9%; for `CCc1ccc(C(=O)Nc2cc(CN3CCN(CCOCCOCC(=O)NCCCN(C(=O)c4ccc(C)cc4)[C@@H](c4nc5cc(Cl)ccc5c(=O)n4Cc4ccccc4)C(C)C)CC3)cc(C(F)(F)F)c2)cc1C#Cc1cnc2ccnn2c1`, 0%.
Consider `CCc1ccc(C(=O)Nc2cc(CN3CCN(C(=O)COCCOCCNC(=O)COc4c(Br)cc(/C=C5\C(=O)Nc6ccc(I)cc65)cc4Br)CC3)cc(C(F)(F)F)c2)cc1C#Cc1cnc2ccnn2c1`, for which the Activity in experiment [1] amounted to 9%.
